Test results as given in patent publication US20240018161A1, “MODULATORS OF CYSTIC FIBROSIS TRANSMEMBRANE CONDUCTANCE REGULATOR” (VERTEX PHARMACEUTICALS INCORPORATED, priority 2020, published 2024).
Read-outs that look alike come from different tables or passages of the source.

Target: CFTR-mediated chloride transport in human intestinal epithelial enteroid cells (Homo sapiens, UniProt P13569)
Test: Membrane potential dye, Enteroid Assay A
Assay type: cell-based
Conditions: for EC50: read-out: Ent. A EC50
Procedure, shortened: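 Membrane potential dye (20 μM methyl oxonol, with 30 μM CaCCinh-A01 and 30 μM Chicago Sky Blue) loaded 25 min at room temperature into ROCK-inhibitor-seeded human enteroid cells. Chloride-free stimulation buffer triggered transport, followed by 15 min fluorescence. % Activity relative to 3 μM/3 μM/300 nM triple-combination control.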

[1] = enteroid cells incubated with test compound 18-24 hours, acute 10 μM forskolin and 300 nM N-[2,4-bis(1,1-dimethylethyl)-5-hydroxyphenyl]-1,4-dihydro-4-oxoquinoline-3-carboxamide
[2] = percentage of chloride transport of triple combination control (3 μM N-[(6-amino-2-pyridyl)sulfonyl]-6-(3-fluoro-5-isobutoxy-phenyl)-2-[(4S)-2,2,4-trimethylpyrrolidin-1-yl]pyridine-3-carboxamide based)

CFTR-mediated chloride transport in human intestinal epithelial enteroid cells, sequence (P13569 with tags, fused parts or gaps DEL508-508): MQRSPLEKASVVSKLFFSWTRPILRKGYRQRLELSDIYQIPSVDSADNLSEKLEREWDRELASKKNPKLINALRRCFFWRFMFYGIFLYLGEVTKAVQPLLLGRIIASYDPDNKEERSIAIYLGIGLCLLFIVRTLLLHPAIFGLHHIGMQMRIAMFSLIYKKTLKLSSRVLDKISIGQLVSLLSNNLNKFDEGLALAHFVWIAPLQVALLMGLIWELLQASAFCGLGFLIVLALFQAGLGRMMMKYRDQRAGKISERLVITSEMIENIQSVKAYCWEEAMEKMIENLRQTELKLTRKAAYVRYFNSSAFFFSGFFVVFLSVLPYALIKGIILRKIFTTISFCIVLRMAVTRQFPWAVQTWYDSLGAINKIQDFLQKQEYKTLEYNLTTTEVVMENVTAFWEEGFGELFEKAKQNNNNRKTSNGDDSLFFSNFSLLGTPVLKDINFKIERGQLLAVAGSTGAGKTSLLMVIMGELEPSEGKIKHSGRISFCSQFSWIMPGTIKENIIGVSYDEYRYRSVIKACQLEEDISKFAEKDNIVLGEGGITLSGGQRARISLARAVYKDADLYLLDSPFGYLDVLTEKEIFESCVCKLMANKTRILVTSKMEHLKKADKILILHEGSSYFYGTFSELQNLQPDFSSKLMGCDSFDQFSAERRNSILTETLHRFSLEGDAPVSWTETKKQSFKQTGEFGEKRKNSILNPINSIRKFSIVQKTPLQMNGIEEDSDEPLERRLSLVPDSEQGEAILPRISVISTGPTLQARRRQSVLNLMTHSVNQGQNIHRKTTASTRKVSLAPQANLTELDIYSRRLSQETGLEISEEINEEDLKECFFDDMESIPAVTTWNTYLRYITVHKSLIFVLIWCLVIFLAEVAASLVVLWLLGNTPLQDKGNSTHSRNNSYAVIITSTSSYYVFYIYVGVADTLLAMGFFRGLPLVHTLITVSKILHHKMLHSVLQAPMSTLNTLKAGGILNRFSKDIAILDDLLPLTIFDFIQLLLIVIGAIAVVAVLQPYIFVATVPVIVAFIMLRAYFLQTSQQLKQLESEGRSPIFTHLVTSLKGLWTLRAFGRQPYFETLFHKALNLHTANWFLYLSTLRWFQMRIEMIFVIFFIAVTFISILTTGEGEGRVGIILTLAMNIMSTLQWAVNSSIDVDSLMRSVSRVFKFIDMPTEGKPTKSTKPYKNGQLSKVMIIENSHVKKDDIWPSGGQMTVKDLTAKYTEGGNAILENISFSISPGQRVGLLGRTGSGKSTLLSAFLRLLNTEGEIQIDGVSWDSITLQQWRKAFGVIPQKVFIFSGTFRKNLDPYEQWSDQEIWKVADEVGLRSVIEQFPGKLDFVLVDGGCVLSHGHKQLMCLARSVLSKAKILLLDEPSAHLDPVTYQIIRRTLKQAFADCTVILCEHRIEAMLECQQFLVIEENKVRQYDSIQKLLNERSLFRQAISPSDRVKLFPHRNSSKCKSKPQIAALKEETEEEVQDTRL

Ent. A Max Activity (%) (Enteroid Assay A)	EC50 (Enteroid Assay A) [nM]	EC50 [1] [nM]	Compound	Ent. A Max Activity (%) [2]
+++ (+++ is >600%)	< 1000	–	CCOC(=O)C1CC1CN1CCN2C[C@@H](C1)Oc1cc(-c3c(C)cccc3C)nc(n1)NS(=O)(=O)c1cccc(c1)C2=O (stereo partly shown) [Compound 34]	–
–	–	< 1000	Cc1cccc(C)c1-c1cc2nc(n1)NS(=O)(=O)c1cccc(c1)C(=O)N1CCN(CC3CC3)C[C@H](C1)O2 [Compound 35, (16R)-18-(Cyclopropylmethyl)-12-(2,6-dimethylphenyl)-8,8-dioxo-15-oxa-8λ^6-thia-1,9,11,18,22-pentazatetracyclo[14.4.1.13,7.110,14]tricosa-3,5,7(23),10(22),11,13-hexaen-2-one]	+++ (+++ is >60%)
+++ (+++ is >600%)	< 1000	–	Cc1cccc(C)c1-c1cc2nc(n1)NS(=O)(=O)c1cccc(c1)C(=O)N1CCN(C3CCC(F)CC3)C[C@H](C1)O2 (stereo partly drawn) [Compound 40, (16R)-12-(2,6-Dimethylphenyl)-18-(4-fluorocyclohexyl)-15-oxa-8λ^6-thia-1,9,11,18,22-pentaazatetracyclo[14.4.1.13,7.110,14]tricosa-3(23),4,6,10,12,14(22)-hexaene-2,8,8-trione]	–
+++ (+++ is >600%)	< 1000	–	Cc1cccc(C)c1-c1cc2nc(n1)NS(=O)(=O)c1cccc(c1)C(=O)N1CCN(C3CCC4(CC3)COC4)C[C@H](C1)O2 [Compound 41, (16R)-12-(2,6-Dimethylphenyl)-18-{2-oxaspiro[3.5]nonan-7-yl}-15-oxa-8λ^6-thia-1,9,11,18,22-pentaazatetracyclo[14.4.1.13,7.110,14]tricosa-3(23),4,6,10,12,14(22)-hexaene-2,8,8-trione]	–
–	–	–	Cc1cccc(C)c1-c1cc2nc(n1)NS(=O)(=O)c1cccc(c1)C(=O)N1CCNCC(C1)O2 (stereo not shown) [Compound 42, 12-(2,6-Dimethylphenyl)-15-oxa-8λ^6-thia-1,9,11,18,22-pentaazatetracyclo[14.4.1.13,7.110,14]tricosa-3(23),4,6,10(22),11,13-hexaene-2,8,8-trione]	++ (++ is 30-60%)
–	–	< 1000	Cc1cccc(C)c1-c1cc2nc(n1)NS(=O)(=O)c1cccc(c1)C(=O)N1CCN(CC(C)C)CC(C1)O2 (stereo not shown) [Compound 44, 12-(2,6-Dimethylphenyl)-18-isobutyl-8,8-dioxo-15-oxa-8λ^6-thia-1,9,11,18,22-pentazatetracyclo[14.4.1.13,7.110,14]tricosa-3,5,7(23),10(22),11,13-hexaen-2-one]	+++ (+++ is >60%)
–	–	< 1000	Cc1cccc(C)c1-c1cc2nc(n1)NS(=O)(=O)c1cccc(c1)C(=O)N1CCN(CCC(C)(C)C)CC(C1)O2 (stereo not shown) [Compound 45]	+++ (+++ is >60%)
+++ (+++ is >600%)	< 1000	–	Cc1cccc(C)c1-c1cc2nc(n1)NS(=O)(=O)c1cccc(c1)C(=O)N1CCN(C3CCC(F)(F)CC3)CC(C1)O2 (stereo not shown) [Compound 46]	–
–	–	3000 to 30000	CNc1ccc(CN2CCN3CC(C2)Oc2cc(-c4c(C)cccc4C)nc(n2)NS(=O)(=O)c2cccc(c2)C3=O)cn1 (stereo not shown) [Compound 47]	+++ (+++ is >60%)
–	–	3000 to 30000	Cc1cccc(C)c1-c1cc2nc(n1)NS(=O)(=O)c1cccc(c1)C(=O)N1CCN(Cc3ccn[nH]3)CC(C1)O2 (stereo not shown) [Compound 48]	++ (++ is 30-60%)
–	–	3000 to 30000	Cc1cccc(C)c1-c1cc2nc(n1)NS(=O)(=O)c1cccc(c1)C(=O)N1CCN(Cc3ccn(C)n3)CC(C1)O2 (stereo not shown) [Compound 49]	+++ (+++ is >60%)
–	–	–	Cc1cccc(C)c1-c1cc2nc(n1)NS(=O)(=O)c1cccc(c1)C(=O)N1CCN(Cc3cncn3C)CC(C1)O2 (stereo not shown) [Compound 51]	+ (+ is <300%)
–	–	1000 to 3000	Cc1cccc(C)c1-c1cc2nc(n1)NS(=O)(=O)c1cccc(c1)C(=O)N1CCN(Cc3nccs3)CC(C1)O2 (stereo not shown) [Compound 52]	++ (++ is 30-60%)
–	–	< 1000	Cc1cccc(C)c1-c1cc2nc(n1)NS(=O)(=O)c1cccc(c1)C(=O)N1CCN(CC3CCCCC3)CC(C1)O2 (stereo not shown) [Compound 53]	++ (++ is 30-60%)
–	–	< 1000	Cc1cccc(C)c1-c1cc2nc(n1)NS(=O)(=O)c1cccc(c1)C(=O)N1CCN(Cc3ccccc3C#N)CC(C1)O2 (stereo not shown) [Compound 54]	+++ (+++ is >60%)
–	–	3000 to 30000	Cc1cccc(C)c1-c1cc2nc(n1)NS(=O)(=O)c1cccc(c1)C(=O)N1CCN(CC3CCOCC3)CC(C1)O2 (stereo not shown) [Compound 55]	+++ (+++ is >60%)

Ent. A Max Activity (%) (Enteroid Assay A)	EC50 (Enteroid Assay A) [nM]	EC50 [1] [nM]	Compound	Ent. A Max Activity (%) [2]
–	–	3000 to 30000	Cc1cccc(C)c1-c1cc2nc(n1)NS(=O)(=O)c1cccc(c1)C(=O)N1CCN(CC3(C)COC3)CC(C1)O2 (stereo not shown) [Compound 56]	++ (++ is 30-60%)
–	–	< 1000	Cc1cccc(C)c1-c1cc2nc(n1)NS(=O)(=O)c1cccc(c1)C(=O)N1CCN(Cc3ccccc3O)CC(C1)O2 (stereo not shown) [Compound 57]	+++ (+++ is >60%)
–	–	< 1000	Cc1cccc(C)c1-c1cc2nc(n1)NS(=O)(=O)c1cccc(c1)C(=O)N1CCN(CCC(C)C)CC(C1)O2 (stereo not shown) [Compound 58]	+++ (+++ is >60%)
–	–	< 1000	Cc1cccc(C)c1-c1cc2nc(n1)NS(=O)(=O)c1cccc(c1)C(=O)N1CCN(CC3CC4C=CC3C4)CC(C1)O2 (stereo not shown) [Compound 59]	+++ (+++ is >60%)
–	–	3000 to 30000	Cc1cccc(C)c1-c1cc2nc(n1)NS(=O)(=O)c1cccc(c1)C(=O)N1CCN(CCC3CCOCC3)CC(C1)O2 (stereo not shown) [Compound 60]	+++ (+++ is >60%)
–	–	< 1000	Cc1cccc(C)c1-c1cc2nc(n1)NS(=O)(=O)c1cccc(c1)C(=O)N1CCN(Cc3sccc3Oc3ccccc3)CC(C1)O2 (stereo not shown) [Compound 61]	+++ (+++ is >60%)
–	–	< 1000	Cc1cccc(C)c1-c1cc2nc(n1)NS(=O)(=O)c1cccc(c1)C(=O)N1CCN(CCC(C)CC(C)(C)C)CC(C1)O2 (stereo not shown) [Compound 62]	+++ (+++ is >60%)
–	–	3000 to 30000	Cc1cccc(C)c1-c1cc2nc(n1)NS(=O)(=O)c1cccc(c1)C(=O)N1CCN(C)CC(C1)O2 (stereo not shown) [Compound 63]	+++ (+++ is >60%)
–	–	1000 to 3000	Cc1cccc(C)c1-c1cc2nc(n1)NS(=O)(=O)c1cccc(c1)C(=O)N1CCN(Cc3ccccn3)CC(C1)O2 (stereo not shown) [Compound 64, 12-(2,6-Dimethylphenyl)-18-[(pyridin-2-yl)methyl]-15-oxa-8λ^6-thia-1,9,11,18,22-pentaazatetracyclo[14.4.1.13,7.110,14]tricosa-3(23),4,6,10(22),11,13-hexaene-2,8,8-trione]	++ (++ is 30-60%)
–	–	< 1000	Cc1cccc(C)c1-c1cc2nc(n1)NS(=O)(=O)c1cccc(c1)C(=O)N1CCN(CCCC(C)(C)C)CC(C1)O2 (stereo not shown) [Compound 65, 18-(4,4-Dimethylpentyl)-12-(2,6-dimethylphenyl)-15-oxa-8λ^6-thia-1,9,11,18,22-pentaazatetracyclo[14.4.1.13,7.110,14]tricosa-3(23),4,6,10(22),11,13-hexaene-2,8,8-trione]	++ (++ is 30-60%)
–	–	3000 to 30000	Cc1cccc(C)c1-c1cc2nc(n1)NS(=O)(=O)c1cccc(c1)C(=O)N1CCN(Cc3cccnc3)C[C@H](C1)O2 [Compound 66, (36R)-16-(2,6-dimethylphenyl)-34-(pyridin-3-ylmethyl)-2-oxa-6-thia-7-aza-3(6,1)-diazepana-1(4,2)-pyrimidina-5(1,3)-benzenacycloheptaphan-4-one 6,6-dioxide]	++ (++ is 30-60%)
–	–	< 1000	Cc1cccc(C)c1-c1cc2nc(n1)NS(=O)(=O)c1cccc(c1)C(=O)N1CCN(Cc3ccccc3)C[C@H](C1)O2 [Compound 67, (16R)-18-Benzyl-12-(2,6-dimethylphenyl)-15-oxa-8λ^6-thia-1,9,11,18,22-pentaazatetracyclo[14.4.1.13,7.110,14]tricosa-3(23),4,6,10(22),11,13-hexaene-2,8,8-trione]	+++ (+++ is >60%)
–	–	1000 to 3000	Cc1cccc(C)c1-c1cc2nc(n1)NS(=O)(=O)c1cccc(c1)C(=O)N1CCN(Cc3ccccc3)C[C@@H](C1)O2 [Compound 68, (16S)-18-benzyl-12-(2,6-dimethylphenyl)-15-oxa-8λ^6-thia-1,9,11,18,22-pentaazatetracyclo[14.4.1.13,7.110,14]tricosa-3(23),4,6,10,12,14(22)-hexaene-2,8,8-trione]	+ (+ is <300%)
+++ (+++ is >600%)	1000 to 3000	–	CCN1CCN2C[C@@H](C1)Oc1cc(-c3c(C)cccc3C)nc(n1)NS(=O)(=O)c1cccc(c1)C2=O [Compound 74, (16R)-12-(2,6-Dimethylphenyl)-18-ethyl-15-oxa-8λ^6-thia-1,9,11,18,22-pentaazatetracyclo[14.4.1.13,7.110,14]tricosa-3(23),4,6,10,12,14(22)-hexaene-2,8,8-trione]	–
+++ (+++ is >600%)	< 1000	–	Cc1cccc(C)c1-c1cc2nc(n1)NS(=O)(=O)c1cccc(c1)C(=O)N1CCN(C(C)C)C[C@H](C1)O2 [Compound 75, (16R)-12-(2,6-Dimethylphenyl)-18-(propan-2-yl)-15-oxa-8λ^6-thia-1,9,11,18,22-pentaazatetracyclo[14.4.1.13,7.110,14]tricosa-3,5,7(23),10,12,14(22)-hexaene-2,8,8-trione]	–
+ (+ is <30%)	–	–	Cc1cccc(C)c1-c1cc2nc(n1)NS(=O)(=O)c1cccc(c1)CN1CC(CNCC1=O)O2 (stereo not shown) [Compound 76, 12-(2,6-Dimethylphenyl)-15-oxa-8λ^6-thia-1,9,11,18,22-pentaazatetracyclo[14.4.1.13,7.110,14]tricosa-3(23),4,6,10,12,14(22)-hexaene-8,8,20-trione]	–
